Reference: patent US20150105252A1, “SUBSTITUTED PYRAZOLES AS HERBICIDES” (E I DU PONT DE NEMOURS AND COMPANY, priority 2013, published 2015)

Columns and labels:
barnyardgrass [1] = test: Test B flood; type: in vivo, Echinochloa crus-galli; details: 250 g ai/ha, visual rating on 0 to 100 scale (0 no effect, 100 complete control), 13 to 15 days
Summary of the method: (§1)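 Two-leaf-stage plants, pots flooded (3 cm above soil) and treated through the water, which stayed at that depth. After 13–15 days in greenhouse conditions, visual assessment versus controls: 0 is no effect, 100 complete control, dash means no result.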

wheat [2] = test: Test A postemergence; type: in vivo, Triticum aestivum
Summary of the method: (§2)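 Visual injury rating, 0–100 (0 no effect, 100 complete control), vs untreated controls ~10 days after treatment in greenhouse. Pre: directed soil spray on seeded loam/sand. Post: 2–10 cm plants, 1–2 leaf stage. Formulation: non-phytotoxic solvent mix + surfactant.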

velvetleaf [3] = test: Test C preemergence; type: in vivo, Abutilon theophrasti; details: preemergence; for Plant response rating, Velvetleaf: 125 g ai/ha, scale 0 to 100, 0 = no effect, 100 = complete control
Summary of the method: (§3)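 Scores of 0 (no effect) to 100 (complete control) were assigned by eye after 13–15 days, comparing treated pots with controls. Soil-applied (preemergence) treatments went onto seeds in loam and sand; foliar (postemergence) treatments onto 1- to 4-leaf plants in peat medium.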

corn [4] = test: Test C preemergence; type: in vivo, Zea mays; details: preemergence; for Plant response rating, Corn: 125 g ai/ha, scale 0 to 100, 0 = no effect, 100 = complete control
Summary of the method: as §3

sedge, umbrella = test: Test B flood; type: in vivo, Cyperus difformis; details: 250 g ai/ha, visual rating on 0 to 100 scale (0 no effect, 100 complete control), 13 to 15 days
Summary of the method: as §1

velvetleaf [5] = test: Test A postemergence; type: in vivo, Abutilon theophrasti
Summary of the method: as §2

ryegrass, Italian = test: Test C preemergence; type: in vivo, Lolium multiflorum; details: preemergence; for Plant response rating, Ryegrass, Italian: 125 g ai/ha, scale 0 to 100, 0 = no effect, 100 = complete control
Summary of the method: as §3

wheat [6] = test: Test A preemergence; type: in vivo, Triticum aestivum; details: preemergence; for Wheat plant response rating (0 to 100 scale): 125 g ai/ha, visual injury approx. 10 days after treatment; for Wheat plant response rating: 500 g ai/ha, visual injury after approx. 10 days, 0 to 100 scale (0 no effect, 100 complete control)
Summary of the method: as §2

ragweed = test: Test C preemergence; type: in vivo, Ambrosia elation; details: preemergence; for Plant response rating, Ragweed: 125 g ai/ha, scale 0 to 100, 0 = no effect, 100 = complete control
Summary of the method: as §3

pigweed = test: Test C preemergence; type: in vivo, Amaranthus retroflexus; details: preemergence; for Plant response rating, Pigweed: 125 g ai/ha, scale 0 to 100, 0 = no effect, 100 = complete control
Summary of the method: as §3

barnyardgrass [7] = test: Test A preemergence; type: in vivo, Echinochloa crus-galli; details: preemergence; for Barnyardgrass plant response rating (0 to 100 scale, 0 is no effect, 100 is complete control): 125 g ai/ha, visual injury approx. 10 days after treatment; for Barnyardgrass plant response rating: 500 g ai/ha, visual injury after approx. 10 days, 0 to 100 scale (0 no effect, 100 complete control)
Summary of the method: as §2

foxtail, giant = test: Test C preemergence; type: in vivo, Setaria faberii; details: preemergence; for Plant response rating, Foxtail, Giant: 125 g ai/ha, scale 0 to 100, 0 = no effect, 100 = complete control
Summary of the method: as §3

morningglory = test: Test C preemergence; type: in vivo, Ipomoea coccinea; details: preemergence; for Plant response rating, Morningglory: 125 g ai/ha, scale 0 to 100, 0 = no effect, 100 = complete control
Summary of the method: as §3

corn [8] = test: Test A postemergence; type: in vivo, Zea mays
Summary of the method: as §2

[9] = Postemergence, 500 g ai/ha, 0 to 100 scale (0 no effect, 100 complete control)
[10] = postemergence, 125 g ai/ha, about 10 days, visual rating on 0 to 100 scale (0 no effect, 100 complete control)
[11] = 31 g ai/ha, visual rating, scale 0 to 100 (0 no effect, 100 complete control), 13 to 15 days
[12] = 62 g ai/ha, scale 0 to 100 (0 no effect, 100 complete control), 13 to 15 days
[13] = 250 g ai/ha, scale 0 to 100, 0 is no effect, 100 is complete control
[14] = Postemergence, 125 g ai/ha, 0 to 100 scale, 0 no effect, 100 complete control

| Structure (SMILES) | Plant response rating, Barnyardgrass (barnyardgrass [1]) | Wheat plant response rating (wheat [2]; [9]) | Velvetleaf plant response rating (velvetleaf [3]; [11]) | Velvetleaf plant response rating (velvetleaf [3]; [12]) | Plant response rating, Velvetleaf (velvetleaf [3]; 13 to 15 days) | Velvetleaf plant response rating (velvetleaf [3]; [13]) | Corn plant response rating (corn [4]; [11]) | Corn plant response rating (corn [4]; [12]) | Plant response rating, Corn (corn [4]; 13 to 15 days) | Corn plant response rating (corn [4]; [13]) | Plant response rating, Sedge, Umbrella (sedge, umbrella) | Velvetleaf plant response rating (velvetleaf [5]; [9]) | Ryegrass, Italian plant response rating (ryegrass, Italian; [11]) | Ryegrass, Italian plant response rating (ryegrass, Italian; [12]) | Plant response rating, Ryegrass, Italian (ryegrass, Italian; 13 to 15 days) | Ryegrass, Italian plant response rating (ryegrass, Italian; [13]) | Wheat plant response rating (0 to 100 scale) (wheat [6]) | Wheat plant response rating (wheat [6]) | Ragweed plant response rating (ragweed; [11]) | Ragweed plant response rating (ragweed; [12]) | other results |
| --- | --- | --- | --- | --- | --- | --- | --- | --- | --- | --- | --- | --- | --- | --- | --- | --- | --- | --- | --- | --- | --- |
| CCNC(=O)c1cc(CCCl)n(Cc2ccnc(C(F)(F)F)c2)n1 [Compound 179] | 25 | 70 | 35 | 80 | 100 | 100 | 5 | 10 | 30 | 95 | 80 | 100 | 5 | 80 | 90 | 90 | 10 | 100 | 90 | 98 | Wheat plant response rating (wheat [2]; [10]): 30; Velvetleaf plant response rating (velvetleaf [5]; [10]): 70; Plant response rating, Ragweed (ragweed; 13 to 15 days): 98; Ragweed plant response rating (ragweed; [13]): 98; Pigweed plant response rating (pigweed; [11]): 100; Pigweed plant response rating (pigweed; [12]): 100; Plant response rating, Pigweed (pigweed; 13 to 15 days): 100; Pigweed plant response rating (pigweed; [13]): 98; Barnyardgrass plant response rating (0 to 100 scale, 0 is no effect, 100 is complete control) (barnyardgrass [7]): 100; Barnyardgrass plant response rating (barnyardgrass [7]): 100; Foxtail, Giant plant response rating (foxtail, giant; [11]): 98; Foxtail, Giant plant response rating (foxtail, giant; [12]): 100; Plant response rating, Foxtail, Giant (foxtail, giant; 13 to 15 days): 100; Foxtail, Giant plant response rating (foxtail, giant; [13]): 100; Morningglory plant response rating (morningglory; [11]): 85; Morningglory plant response rating (morningglory; [12]): 95; Plant response rating, Morningglory (morningglory; 13 to 15 days): 100; Morningglory plant response rating (morningglory; [13]): 100; Corn plant response rating (corn [8]; [9]): 90; Corn plant response rating (corn [8]; [10]): 50 |
| CCCc1cc(C(=O)NOCC)nn1Cc1ccnc(C(F)(F)F)c1 [Compound 185] | 20 | 80 | 20 | 65 | 100 | 98 | 5 | 25 | 45 | 75 | 80 | 100 | 0 | 30 | 90 | 90 | 70 | 90 | 5 | 75 | Wheat plant response rating (wheat [2]; [14]): 0; Velvetleaf plant response rating (velvetleaf [5]; [14]): 10; Plant response rating, Ragweed (ragweed; 13 to 15 days): 95; Ragweed plant response rating (ragweed; [13]): 100; Pigweed plant response rating (pigweed; [11]): 100; Pigweed plant response rating (pigweed; [12]): 100; Plant response rating, Pigweed (pigweed; 13 to 15 days): 100; Pigweed plant response rating (pigweed; [13]): 100; Barnyardgrass plant response rating (0 to 100 scale, 0 is no effect, 100 is complete control) (barnyardgrass [7]): 80; Barnyardgrass plant response rating (barnyardgrass [7]): 100; Foxtail, Giant plant response rating (foxtail, giant; [11]): 60; Foxtail, Giant plant response rating (foxtail, giant; [12]): 90; Plant response rating, Foxtail, Giant (foxtail, giant; 13 to 15 days): 98; Foxtail, Giant plant response rating (foxtail, giant; [13]): 100; Morningglory plant response rating (morningglory; [11]): 15; Morningglory plant response rating (morningglory; [12]): 75; Plant response rating, Morningglory (morningglory; 13 to 15 days): 85; Morningglory plant response rating (morningglory; [13]): 98; Corn plant response rating (corn [8]; [9]): 90; Corn plant response rating (corn [8]; [10]): 0 |
| CCOc1cc(C(=O)NC(C)C)nn1Cc1ccnc(C(F)(F)F)c1 [Compound 188] | 75 | 90 | 100 | 100 | 100 | 100 | 55 | 85 | 98 | 98 | 90 | 100 | 70 | 90 | 90 | 90 | 100 | 100 | 75 | 95 | Wheat plant response rating (wheat [2]; [14]): 80; Velvetleaf plant response rating (velvetleaf [5]; [14]): 100; Plant response rating, Ragweed (ragweed; 13 to 15 days): 100; Ragweed plant response rating (ragweed; [13]): 98; Pigweed plant response rating (pigweed; [11]): 100; Pigweed plant response rating (pigweed; [12]): 100; Plant response rating, Pigweed (pigweed; 13 to 15 days): 100; Pigweed plant response rating (pigweed; [13]): 100; Barnyardgrass plant response rating (0 to 100 scale, 0 is no effect, 100 is complete control) (barnyardgrass [7]): 100; Barnyardgrass plant response rating (barnyardgrass [7]): 100; Foxtail, Giant plant response rating (foxtail, giant; [11]): 100; Foxtail, Giant plant response rating (foxtail, giant; [12]): 100; Plant response rating, Foxtail, Giant (foxtail, giant; 13 to 15 days): 100; Foxtail, Giant plant response rating (foxtail, giant; [13]): 100; Morningglory plant response rating (morningglory; [11]): 98; Morningglory plant response rating (morningglory; [12]): 98; Plant response rating, Morningglory (morningglory; 13 to 15 days): 98; Morningglory plant response rating (morningglory; [13]): 100; Corn plant response rating (corn [8]; [9]): 100; Corn plant response rating (corn [8]; [10]): 90 |
